From US8791098B2 (priority 2008, dated 2014)
Values after ≈ are worked out from the molar mass of the structure shown. Where two headings read alike, the source gives them in different places.

Key:
[1] = system: U-2 OS human osteosarcoma cells; test: cells; assay type: cell-based; conditions: Homo sapiens, U2OS, average of two measurements, read-out: IC50
Experimental: Cytotoxicity testing of pretubulysin (AU827), N-desmethyl-pretubulysin (AU816) and Tubulysin A and D was performed as follows: Cells were seeded at 6×10^3 cells per well of 96-well plates in 180 μl complete medium and directly treated with varying concentrations of (pre-)tubulysins diluted in methanol. Each compound was tested in duplicate as well as the internal methanol control. After 5 d incubation, 20 μl of 5 mg/ml MTT (Thiazolyl blue tetrazolium bromide) in PBS was added per well and it was further incubated for 2 h at 37° C. The medium was then discarded and cells were washed with 100 μl PBS before adding 100 μl 2-propanol/10 N HCl (250:1) in order to dissolve formazan granules.
The absorbance at 570 nm was measured using a microplate reader (EL808, Bio-Tek Instruments Inc.), and cell viability was expressed as percentage relative to the respective methanol control. IC50 values were obtained by plotting relative growth inhibition in % against the compound concentration on a logarithmic scale. After sigmoidal curve fitting IC50 values can be determined. The IC50[per ml] are shown in the following table (values represent the average of two measurements):
Similarly cytotoxicity testing of Pretubulysin-related compounds in U-2 OS human osteosarcoma cells was performed and was further compared with AU 339 and AU 954, compounds mentioned in WO2008/106080 and WO2004/046170. The IC50 values are shown in the following table (values represent the average of two measurements): […]

[2] = target: T1, preassembled microtubules (Sus scrofa, UniProt P02550+P02554); test: De-polymerization of preassembled microtubules (turbidometry); assay type: biochemical, porcine; conditions: drug added after about 5 min polymerization at 37° C., monitored 10 min at 350 nm
T1 construct: Microtubules proteins were purified from porcine brain; from tissue; host or cells: porcine brain
T1 sequence (P02554 whole entry): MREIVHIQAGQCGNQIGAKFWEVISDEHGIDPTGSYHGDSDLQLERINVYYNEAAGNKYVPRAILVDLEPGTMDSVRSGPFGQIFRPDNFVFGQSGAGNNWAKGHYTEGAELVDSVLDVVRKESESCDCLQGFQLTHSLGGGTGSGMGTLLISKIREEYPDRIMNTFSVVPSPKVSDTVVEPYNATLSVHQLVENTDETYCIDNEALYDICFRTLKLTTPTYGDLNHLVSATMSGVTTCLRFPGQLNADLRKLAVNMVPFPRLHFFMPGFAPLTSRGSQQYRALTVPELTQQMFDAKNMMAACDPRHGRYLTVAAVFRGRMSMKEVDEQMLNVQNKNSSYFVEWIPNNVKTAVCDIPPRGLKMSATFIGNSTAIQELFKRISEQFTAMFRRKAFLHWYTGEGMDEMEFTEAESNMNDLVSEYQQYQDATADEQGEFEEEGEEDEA
T1 sequence (P02550 whole entry): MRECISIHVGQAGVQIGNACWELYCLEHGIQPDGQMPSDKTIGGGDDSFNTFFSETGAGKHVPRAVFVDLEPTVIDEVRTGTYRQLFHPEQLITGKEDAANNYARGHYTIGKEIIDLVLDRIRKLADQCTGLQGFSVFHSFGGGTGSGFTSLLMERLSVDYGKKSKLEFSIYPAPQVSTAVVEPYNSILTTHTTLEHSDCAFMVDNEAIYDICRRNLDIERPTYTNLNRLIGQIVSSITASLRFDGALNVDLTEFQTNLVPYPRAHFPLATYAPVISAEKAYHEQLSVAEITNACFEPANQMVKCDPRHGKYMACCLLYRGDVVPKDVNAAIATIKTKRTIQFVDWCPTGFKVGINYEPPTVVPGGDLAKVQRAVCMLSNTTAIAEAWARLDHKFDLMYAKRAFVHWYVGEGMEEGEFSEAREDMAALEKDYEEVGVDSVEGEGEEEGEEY
Experimental: Tubulin purification: Microtubules proteins were purified from porcine brain by using standard procedures that includes three cycles of temperature-dependent polymerization and de-polymerization, as described elsewhere.
Polymerisation assay: Tubulin polymerisation was monitored by using turbidometry assay (lit). Samples (200 μl, 10 μM tubulin) in PEM polymerisation buffer (0.1 M PIPES, pH 6.6, 1 mM EGTA, 1 mM MgSO4, and 1 mM GTP), were rapidly warmed to 37° C. in a water-jacketed cuvette holder of a diode array photometer (Beckman spectrophotometer DU 7500). Absorbance at 350 nm where monitored in the absence and the presence of the drugs.
In order to examine the action of the drug on preassembled microtubules, microtubules proteins were firstly polymerized at 37° C. for approximately 5 min. Then the drug was added, and the stability of the microtubules was measured for further 10 min at 350 nm.

[3] = system: L929, A549, SW-480, U937 and HL-60 cell lines; test: Anti-proliferation MTT assay, comparison over the tested cell lines; assay type: cell-based
Experimental: A given number of cells were cultivated in 96-well plates with serial dilutions of the drugs up to 100 ng/ml. Tubulysin A is used as a positive control, whereas methanol is used as a negative control. After 5 days of incubation the metabolic activities of the cells were measured using MTT-assay as described under the methods section.

[4] = comparison with prior art compounds

SMILES | IC50 [1] [ng/mL] | IC50 [1, 4] [ng/mL] | de-polymerization of preassembled microtubules [2] | potency/toxicity of pre-tubulysin-827 relative to pre-tubulysin-816 [3]
CC[C@H](C)[C@H](NC(=O)[C@H]1CCCCN1C)C(=O)N(C)[C@H](CCc1nc(C(=O)N[C@H](CCC(=O)O)Cc2ccccc2)cs1)C(C)C [pre-tubulysin-816, N-desmethyl-pretubulysin] | 3.23 (≈ 4.92 nM) | 3.16 (≈ 4.82 nM) | – | –
CC[C@H](C)[C@H](NC(=O)[C@H]1CCCCN1C)C(=O)N(C)[C@H](CCc1nc(C(=O)N[C@@H](Cc2ccccc2)C[C@H](C)C(=O)O)cs1)C(C)C [pre-tubulysin-827, pretubulysin] | 0.56 (≈ 0.836 nM) | 0.56 (≈ 0.836 nM) | induced de-polymerization of microtubules at substoichiometric concentrations | 5-10 folds
